Blank lines part the entries; values can stand above or below the compound they belong to. Calls of active or inactive are those of the source.
Experiments:
[1] = target: T1, Neuropeptide Y receptor type 1 (Homo sapiens, UniProt P25929); type: functional;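 note: HEK293 cells with a CNG channel challenged with NPY then isoproterenol; potency as antagonist that reverses NPY suppression of cAMP signal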
T1 sequence (P25929 whole entry): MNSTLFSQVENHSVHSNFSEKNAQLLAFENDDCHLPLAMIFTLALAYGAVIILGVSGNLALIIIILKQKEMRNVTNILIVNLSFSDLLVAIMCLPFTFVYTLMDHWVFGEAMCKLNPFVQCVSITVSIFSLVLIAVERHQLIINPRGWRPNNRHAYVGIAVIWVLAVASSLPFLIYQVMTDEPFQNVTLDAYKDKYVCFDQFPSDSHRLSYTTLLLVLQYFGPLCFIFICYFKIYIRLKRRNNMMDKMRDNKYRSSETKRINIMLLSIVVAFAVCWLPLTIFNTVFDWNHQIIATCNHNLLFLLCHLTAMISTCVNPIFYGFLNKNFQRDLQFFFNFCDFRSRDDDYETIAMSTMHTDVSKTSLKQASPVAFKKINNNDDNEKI

[2] = target: T2, Neuropeptide Y receptor type 2 (Homo sapiens, UniProt P49146); type: functional, cell-based;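 note: HEK293 cells expressing the receptor and a CNG channel; stimulus was NPY near EC95 followed by isoproterenol to raise cAMP; antagonist potency measured as restoring cAMP signal that NPY suppresses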
T2 sequence (P49146 whole entry): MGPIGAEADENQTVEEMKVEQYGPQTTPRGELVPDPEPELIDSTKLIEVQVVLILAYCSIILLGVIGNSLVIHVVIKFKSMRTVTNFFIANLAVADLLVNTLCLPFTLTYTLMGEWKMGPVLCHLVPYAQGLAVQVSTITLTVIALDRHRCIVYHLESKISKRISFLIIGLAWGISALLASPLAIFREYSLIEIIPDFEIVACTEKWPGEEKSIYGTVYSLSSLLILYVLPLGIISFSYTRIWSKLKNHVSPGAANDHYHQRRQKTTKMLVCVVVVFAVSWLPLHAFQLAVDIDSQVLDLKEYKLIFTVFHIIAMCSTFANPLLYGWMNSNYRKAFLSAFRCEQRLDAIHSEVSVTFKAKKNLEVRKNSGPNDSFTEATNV

[3] = NIH3T3 cell viability loss – ATP luminescence, mouse fibroblasts, counter-screen, dose response (AID 2010); type: functional, cell-based;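 note: cells exposed to compound for about 90 hours before reading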
[4] = DRD fibroblast viability loss – cell-based, non-viral oncogenic, luminescence, dose response (AID 1934); type: functional; conditions: Homo sapiens
[5] = HEK-293T viability loss after treatment – luminescence, T-cell screen hits, cytotoxicity control for TCR NF-kB inhibitor project, dose response (AID 489026); type: functional, cell-based;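 note: cells exposed to compound about 14 hours before the viability readout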
[6] = NIH-3T3 fibroblast cytotoxicity, dose response, cytotoxicity control, cell-based, fluorescence, Alamar Blue, secondary assay (AID 2327); type: functional;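 note: NIH-3T3 mouse fibroblasts cultured with fluconazole at 8 µg/mL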
[7] = Trypanosoma cruzi growth suppression in host cells – NIH3T3 host cells, beta-gal luminescence, confirmation (AID 2044); type: functional, cell-based;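 note: intracellular parasites grown in NIH/3T3 mouse fibroblasts as host cells; luminescent beta-galactosidase reporter signal from transgenic T. cruzi replicating inside host cells; inhibitors lower the luminescence signal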
[8] = fluconazole-exposed Candida albicans growth modulators – fluorescence, retest, confirmation (AID 2467); type: functional, cell-based
BJ [9] = experiment: BJ-TERT fibroblast viability loss – cell-based, RAS-independent, luminescence, dose response (AID 1933); type: functional; conditions: Homo sapiens
BJ [10] = experiment: cells; type: functional, cell-based; conditions: Homo sapiens
BJ [11] = experiment: BJ-TERT-LT-ST fibroblast viability loss – cell-based, RAS-independent, luminescence, dose response (AID 1935); type: functional; conditions: Homo sapiens;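 note: BJ fibroblasts immortalized with TERT plus LT and ST oncogenes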
[12] = target: T3, Microphthalmia-associated transcription factor (Homo sapiens, UniProt O75030); experiment: reducers of TRPM1 reporter luminescence, concentration series – cell-based, SK-MEL-5, cherry-picked, set 3, MITF inhibitor project, dose response (AID 493073); type: functional;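 note: SK-MEL-5 melanoma cells with luciferase driven by the MITF target TRPM1 promoter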
T3 sequence (O75030 whole entry): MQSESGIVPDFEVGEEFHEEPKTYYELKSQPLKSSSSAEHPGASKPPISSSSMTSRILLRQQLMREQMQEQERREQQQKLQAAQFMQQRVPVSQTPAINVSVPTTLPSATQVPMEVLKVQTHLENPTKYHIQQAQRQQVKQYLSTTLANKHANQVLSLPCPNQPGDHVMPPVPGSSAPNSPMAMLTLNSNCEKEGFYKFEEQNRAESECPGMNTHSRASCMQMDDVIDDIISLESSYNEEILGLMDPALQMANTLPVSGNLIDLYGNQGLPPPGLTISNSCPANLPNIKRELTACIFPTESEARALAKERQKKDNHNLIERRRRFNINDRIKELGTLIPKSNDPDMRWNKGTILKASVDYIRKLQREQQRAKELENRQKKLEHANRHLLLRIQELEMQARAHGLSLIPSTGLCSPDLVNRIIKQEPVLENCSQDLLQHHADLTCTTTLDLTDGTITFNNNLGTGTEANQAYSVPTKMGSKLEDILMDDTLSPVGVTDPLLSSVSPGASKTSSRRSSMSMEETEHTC

Genome polyprotein = Genome polyprotein (dengue virus type 2, UniProt P29990); experiment: flavivirus cap methylation enzyme inhibition – biochemical, confirmation dose response, primary screen (AID 588689); type: functional
[13] = target: T4, RNA-binding protein pos-1 (Caenorhabditis elegans, UniProt G5EF15); experiment: disruptors of C. elegans POS-1 RNA interaction – biochemical, fluorescence polarization, dose response (AID 1964);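 note: purified POS-1 fused to maltose binding protein made in E. coli; potency of compounds blocking POS-1 binding to fluorescent RNA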
T4 sequence (G5EF15 whole entry): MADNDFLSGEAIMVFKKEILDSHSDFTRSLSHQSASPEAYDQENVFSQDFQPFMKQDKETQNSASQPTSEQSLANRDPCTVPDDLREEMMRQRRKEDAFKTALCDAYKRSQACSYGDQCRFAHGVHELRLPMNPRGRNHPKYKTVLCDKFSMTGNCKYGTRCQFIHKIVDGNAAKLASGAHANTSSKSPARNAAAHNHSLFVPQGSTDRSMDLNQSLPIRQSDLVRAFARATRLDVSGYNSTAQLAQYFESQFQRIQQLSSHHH

[14] = target: T5, Induced myeloid leukemia cell differentiation protein Mcl-1 (Homo sapiens, UniProt Q07820); experiment: blockers of MCL1 binding to BIM peptide – biochemical, fluorescence polarization, BIM-BH3 peptide, 1536-well, dose response (AID 2217)
[15] = target: T6, Zinc finger protein mex-5 (Caenorhabditis elegans, UniProt Q9XUB2); experiment: potency of MEX-5 RNA-binding blockers – biochemical, C. elegans, fluorescence polarization, dose response (AID 1960)
T6 sequence (Q9XUB2 whole entry): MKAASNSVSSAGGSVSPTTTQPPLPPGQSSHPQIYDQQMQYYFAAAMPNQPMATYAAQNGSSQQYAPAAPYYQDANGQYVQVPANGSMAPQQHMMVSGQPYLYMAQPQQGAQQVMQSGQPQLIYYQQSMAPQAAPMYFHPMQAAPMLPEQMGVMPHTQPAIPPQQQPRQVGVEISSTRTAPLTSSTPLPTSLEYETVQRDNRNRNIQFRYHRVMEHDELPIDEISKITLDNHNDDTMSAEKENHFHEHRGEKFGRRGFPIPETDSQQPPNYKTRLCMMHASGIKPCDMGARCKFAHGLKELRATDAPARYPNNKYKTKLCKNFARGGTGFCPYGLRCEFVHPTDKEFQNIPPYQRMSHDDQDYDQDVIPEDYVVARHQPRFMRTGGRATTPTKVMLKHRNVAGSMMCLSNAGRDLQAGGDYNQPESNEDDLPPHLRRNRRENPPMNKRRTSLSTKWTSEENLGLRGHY

Bcl-2-like protein 1 = Bcl-2-like protein 1 (Homo sapiens, UniProt Q07817); experiment: blockers of BCLXL peptide binding – biochemical, fluorescence polarization, 1536-well, selectivity assay for MCL1 inhibitor project, dose response (AID 2218)
[16] = target: Lytic switch protein BZLF1 (Epstein-Barr virus (strain B95-8) (HHV-4) (Human herpesvirus 4), UniProt P03206); experiment: inhibition of BZLF1 ZTA DNA binding – biochemical, fluorescence polarization, Epstein-Barr virus, 1536-well, counter-screen for EBNA-1 inhibitor project, dose response (AID 2377); set-up: species or system human gammaherpesvirus 4;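 note: fluorescence polarization of Cy5-labelled ZRE DNA probe bound by purified Zta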
[17] = target: Epstein-Barr nuclear antigen 1 (Epstein-Barr virus (strain B95-8) (HHV-4) (Human herpesvirus 4), UniProt P03211); experiment: inhibition of EBV nuclear antigen 1 DNA binding – biochemical, fluorescence polarization, 1536-well, dose response (AID 2381); set-up: species or system human gammaherpesvirus 4;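 note: fluorescence polarization of a Cy5 DNA probe bound by EBNA-1 protein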
Cytochrome P450 1A2 = target: T7, Cytochrome P450 1A2 (Homo sapiens, UniProt P05177);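 note: PubChem cytochrome P450 panel assay, CYP1A2 panel member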
T7 sequence (P05177 whole entry): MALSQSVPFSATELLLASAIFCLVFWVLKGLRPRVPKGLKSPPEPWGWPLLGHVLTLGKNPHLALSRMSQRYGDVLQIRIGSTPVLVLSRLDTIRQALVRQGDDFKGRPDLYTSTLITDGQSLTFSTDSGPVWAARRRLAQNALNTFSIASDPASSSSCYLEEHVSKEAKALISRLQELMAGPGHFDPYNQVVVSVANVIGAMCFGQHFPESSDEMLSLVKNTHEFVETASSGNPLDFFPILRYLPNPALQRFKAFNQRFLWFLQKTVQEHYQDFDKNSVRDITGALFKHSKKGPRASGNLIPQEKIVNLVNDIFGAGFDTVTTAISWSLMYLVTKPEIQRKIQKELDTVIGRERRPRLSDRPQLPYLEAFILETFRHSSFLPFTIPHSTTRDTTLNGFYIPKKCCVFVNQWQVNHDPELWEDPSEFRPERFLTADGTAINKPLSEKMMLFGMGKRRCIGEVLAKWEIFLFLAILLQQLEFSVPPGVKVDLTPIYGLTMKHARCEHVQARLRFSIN

Cytochrome P450 3A4 = Cytochrome P450 3A4 (Homo sapiens, UniProt P08684);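 note: CYP3A4 tested as one member of a cytochrome P450 panel screen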
[18] = target: T5, Induced myeloid leukemia cell differentiation protein Mcl-1; type: functional
Cytochrome P450 2D6 = Cytochrome P450 2D6 (Homo sapiens, UniProt P10635);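 note: CYP2D6 member of a cytochrome P450 panel assay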
Cytochrome P450 2C19 = Cytochrome P450 2C19 (Homo sapiens, UniProt P33261); experiment: Cytochrome panel assay with activity outcomes. Panel member name: p450-cyp2c19 Compounds with AC50 equal or less than 10 uM are considered active; type: functional; conditions: read-out: AC50
Cytochrome P450 2C9 = Cytochrome P450 2C9 (Homo sapiens, UniProt P11712)
Chain of Cytochrome P450 2C9 (P11712 whole entry): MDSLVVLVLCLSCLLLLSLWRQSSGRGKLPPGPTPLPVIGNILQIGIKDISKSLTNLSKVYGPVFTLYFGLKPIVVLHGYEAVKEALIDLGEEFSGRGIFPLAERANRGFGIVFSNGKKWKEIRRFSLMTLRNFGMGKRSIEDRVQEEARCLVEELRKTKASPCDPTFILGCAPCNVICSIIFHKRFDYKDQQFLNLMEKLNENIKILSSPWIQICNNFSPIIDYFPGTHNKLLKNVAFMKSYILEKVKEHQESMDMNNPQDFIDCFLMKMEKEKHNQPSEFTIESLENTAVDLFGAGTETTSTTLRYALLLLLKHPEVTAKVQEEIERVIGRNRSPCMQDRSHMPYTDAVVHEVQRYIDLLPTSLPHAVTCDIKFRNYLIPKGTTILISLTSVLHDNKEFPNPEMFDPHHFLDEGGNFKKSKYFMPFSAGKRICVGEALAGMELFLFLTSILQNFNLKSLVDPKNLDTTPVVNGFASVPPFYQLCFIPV

T5 sequence (Q07820 whole entry): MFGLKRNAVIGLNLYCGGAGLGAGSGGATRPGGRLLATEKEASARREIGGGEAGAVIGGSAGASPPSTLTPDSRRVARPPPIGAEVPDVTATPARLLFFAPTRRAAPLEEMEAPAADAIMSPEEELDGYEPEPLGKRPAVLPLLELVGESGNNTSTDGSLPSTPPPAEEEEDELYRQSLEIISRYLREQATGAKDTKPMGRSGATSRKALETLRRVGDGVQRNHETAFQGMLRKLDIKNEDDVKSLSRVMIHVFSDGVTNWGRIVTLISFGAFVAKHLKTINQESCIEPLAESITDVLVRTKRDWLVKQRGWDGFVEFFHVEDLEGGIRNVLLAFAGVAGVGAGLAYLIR
Chain of Bcl-2-like protein 1 (Q07817 whole entry): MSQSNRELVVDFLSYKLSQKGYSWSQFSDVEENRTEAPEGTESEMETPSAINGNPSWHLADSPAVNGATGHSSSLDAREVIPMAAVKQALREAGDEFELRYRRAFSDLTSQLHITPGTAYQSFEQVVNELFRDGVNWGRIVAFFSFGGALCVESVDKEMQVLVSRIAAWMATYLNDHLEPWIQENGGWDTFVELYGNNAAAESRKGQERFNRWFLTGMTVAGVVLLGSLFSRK
Chain of Lytic switch protein BZLF1 (P03206 whole entry): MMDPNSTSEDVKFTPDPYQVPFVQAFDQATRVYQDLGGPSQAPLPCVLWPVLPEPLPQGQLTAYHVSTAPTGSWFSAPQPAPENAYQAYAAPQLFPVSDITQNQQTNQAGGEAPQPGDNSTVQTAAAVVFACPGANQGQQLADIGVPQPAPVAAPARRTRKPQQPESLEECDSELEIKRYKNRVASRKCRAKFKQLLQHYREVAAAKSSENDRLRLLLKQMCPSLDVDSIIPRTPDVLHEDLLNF
Chain of Epstein-Barr nuclear antigen 1 (P03211 whole entry): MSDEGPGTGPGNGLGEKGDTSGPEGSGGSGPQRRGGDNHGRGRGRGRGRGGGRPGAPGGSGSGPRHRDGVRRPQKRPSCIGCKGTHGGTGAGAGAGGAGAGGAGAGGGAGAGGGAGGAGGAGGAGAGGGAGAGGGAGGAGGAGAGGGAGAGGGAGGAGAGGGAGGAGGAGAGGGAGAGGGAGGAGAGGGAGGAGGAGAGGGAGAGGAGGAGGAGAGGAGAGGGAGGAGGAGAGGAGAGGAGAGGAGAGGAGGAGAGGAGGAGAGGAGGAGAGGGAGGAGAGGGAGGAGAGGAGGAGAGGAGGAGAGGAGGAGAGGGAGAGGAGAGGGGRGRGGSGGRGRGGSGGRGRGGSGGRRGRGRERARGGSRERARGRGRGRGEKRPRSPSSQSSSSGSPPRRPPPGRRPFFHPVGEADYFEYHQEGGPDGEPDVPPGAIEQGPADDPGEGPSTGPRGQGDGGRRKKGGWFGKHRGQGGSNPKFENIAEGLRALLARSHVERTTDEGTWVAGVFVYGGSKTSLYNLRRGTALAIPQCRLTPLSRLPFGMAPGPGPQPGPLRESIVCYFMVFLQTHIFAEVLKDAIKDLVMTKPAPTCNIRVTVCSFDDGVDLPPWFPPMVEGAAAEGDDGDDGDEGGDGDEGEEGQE
Chain of Cytochrome P450 2D6 (P10635 whole entry): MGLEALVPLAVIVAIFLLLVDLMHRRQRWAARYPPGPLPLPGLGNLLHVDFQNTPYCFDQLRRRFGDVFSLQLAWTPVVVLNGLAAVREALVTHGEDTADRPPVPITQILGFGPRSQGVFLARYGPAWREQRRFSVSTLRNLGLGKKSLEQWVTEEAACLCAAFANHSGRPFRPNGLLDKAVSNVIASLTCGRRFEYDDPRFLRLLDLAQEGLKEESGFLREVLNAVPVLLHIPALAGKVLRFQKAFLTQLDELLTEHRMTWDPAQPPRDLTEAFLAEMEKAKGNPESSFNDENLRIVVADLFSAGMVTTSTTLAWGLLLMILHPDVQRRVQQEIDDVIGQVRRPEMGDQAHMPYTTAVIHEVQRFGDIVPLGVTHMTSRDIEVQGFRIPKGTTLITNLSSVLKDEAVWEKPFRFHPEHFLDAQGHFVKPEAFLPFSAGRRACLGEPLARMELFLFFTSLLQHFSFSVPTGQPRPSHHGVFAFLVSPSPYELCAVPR
Chain of Genome polyprotein (P29990 2492-3391 limits assumed): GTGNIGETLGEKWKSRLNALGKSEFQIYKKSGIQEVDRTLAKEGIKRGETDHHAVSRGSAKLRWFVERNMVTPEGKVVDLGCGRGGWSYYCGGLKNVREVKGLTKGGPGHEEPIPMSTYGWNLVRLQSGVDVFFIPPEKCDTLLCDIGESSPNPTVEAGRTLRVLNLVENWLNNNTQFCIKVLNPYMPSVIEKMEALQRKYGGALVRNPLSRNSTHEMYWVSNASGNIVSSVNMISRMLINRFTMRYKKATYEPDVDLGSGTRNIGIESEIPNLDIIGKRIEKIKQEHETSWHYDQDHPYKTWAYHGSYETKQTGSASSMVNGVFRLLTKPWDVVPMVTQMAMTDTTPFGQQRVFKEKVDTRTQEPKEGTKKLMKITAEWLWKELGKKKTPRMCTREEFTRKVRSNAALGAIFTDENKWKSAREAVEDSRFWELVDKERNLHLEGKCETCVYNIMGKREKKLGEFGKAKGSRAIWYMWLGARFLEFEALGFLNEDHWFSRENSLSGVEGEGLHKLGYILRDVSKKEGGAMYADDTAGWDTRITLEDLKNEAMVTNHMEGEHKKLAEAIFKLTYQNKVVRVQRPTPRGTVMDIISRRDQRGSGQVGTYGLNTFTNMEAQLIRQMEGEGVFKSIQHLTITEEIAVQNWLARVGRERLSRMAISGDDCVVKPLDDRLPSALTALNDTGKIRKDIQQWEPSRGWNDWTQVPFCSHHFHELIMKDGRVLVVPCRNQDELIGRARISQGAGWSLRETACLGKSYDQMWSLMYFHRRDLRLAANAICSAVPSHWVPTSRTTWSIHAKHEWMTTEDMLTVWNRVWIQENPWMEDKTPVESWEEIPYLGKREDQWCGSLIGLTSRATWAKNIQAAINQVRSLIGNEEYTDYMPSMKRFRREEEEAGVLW
Chain of Cytochrome P450 3A4 (P08684 whole entry): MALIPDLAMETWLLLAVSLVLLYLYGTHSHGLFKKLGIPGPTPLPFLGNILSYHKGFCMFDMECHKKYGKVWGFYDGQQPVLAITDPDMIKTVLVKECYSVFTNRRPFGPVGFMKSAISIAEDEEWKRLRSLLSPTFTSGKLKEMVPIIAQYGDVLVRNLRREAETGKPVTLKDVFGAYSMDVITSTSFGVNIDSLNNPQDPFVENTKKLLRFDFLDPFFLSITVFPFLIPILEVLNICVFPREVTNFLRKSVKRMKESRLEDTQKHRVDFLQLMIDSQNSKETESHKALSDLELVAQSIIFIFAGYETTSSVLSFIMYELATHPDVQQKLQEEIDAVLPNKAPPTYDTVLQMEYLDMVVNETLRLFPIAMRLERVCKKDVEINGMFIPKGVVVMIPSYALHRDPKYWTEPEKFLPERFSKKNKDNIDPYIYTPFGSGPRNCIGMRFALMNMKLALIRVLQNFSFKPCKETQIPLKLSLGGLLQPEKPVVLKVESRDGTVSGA
Chain of Cytochrome P450 2C19 (P33261 whole entry): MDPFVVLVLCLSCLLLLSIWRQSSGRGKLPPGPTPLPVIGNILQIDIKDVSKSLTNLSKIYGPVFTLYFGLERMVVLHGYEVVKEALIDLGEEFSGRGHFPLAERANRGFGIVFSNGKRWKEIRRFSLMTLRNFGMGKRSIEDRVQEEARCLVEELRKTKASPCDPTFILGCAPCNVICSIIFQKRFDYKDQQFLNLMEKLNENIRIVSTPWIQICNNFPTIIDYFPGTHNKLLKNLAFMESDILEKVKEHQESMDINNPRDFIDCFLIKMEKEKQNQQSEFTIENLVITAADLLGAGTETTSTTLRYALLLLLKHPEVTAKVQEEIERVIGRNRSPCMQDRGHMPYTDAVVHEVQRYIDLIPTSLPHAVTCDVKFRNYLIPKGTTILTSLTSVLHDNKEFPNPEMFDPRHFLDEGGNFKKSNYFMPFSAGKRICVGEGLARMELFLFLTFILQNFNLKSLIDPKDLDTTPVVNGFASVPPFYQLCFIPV

SMILES: Cc1ccc2c(c1)sc(-c1ccc(N(C)C)cc1)[n+]2C
EC50 [3]: > 60 µM (not active)
EC50 [4]: 14.5 µM (active)
IC50 [5]: > 80 µM (inactive)
EC50 [6]: > 160 µM (inactive)
EC50 [7]: < 0.1 µM (active)
EC50 [8]: 0.039 µM (active)
EC50 (BJ [9]): 3.83 µM (active)
EC50 (BJ [10]): 0.609 µM (active)
EC50 (BJ [11]): 20.9 µM (inconclusive)
EC50 (cells): < 0.004 µM (active)

SMILES: C/C(=N/NC(=O)C(O)(c1ccccc1)c1ccccc1)c1ccc([N+](=O)[O-])o1
EC50 [3]: > 60 µM (not active)
AC50 [12]: 9.84 µM (active)
EC50 [7]: < 0.1 µM (active)
EC50 (cells): 0.222 µM (active)

SMILES: Cc1nc2ccccc2c(=O)n1/N=C/c1ccc(O)c(O)c1O
IC50 (Genome polyprotein): > 100 µM (active)
EC50 [13]: 12.9 µM (active)
IC50 [14]: 2.07 µM (active)
EC50 [15]: 0.193 µM (active)
IC50 (Bcl-2-like protein 1): > 109 µM (not active)

SMILES: O=C(N/N=C/c1ccncc1)c1cc([N+](=O)[O-])cc([N+](=O)[O-])c1O
AC50 (Cytochrome P450 1A2): 5.01 µM (inconclusive)
AC50 (Cytochrome P450 3A4): 1 µM (inconclusive)
IC50 [14]: > 36.3 µM (not active)
IC50 [18]: 3.25 µM (active)
AC50 (Cytochrome P450 2D6): 14.1 µM (inconclusive)
AC50 (Cytochrome P450 2C19): 2.51 µM (inconclusive)
IC50 (Bcl-2-like protein 1): > 109 µM (not active)

SMILES: Clc1ccccc1CSc1nnc(/C=C/c2ccccc2)o1
AC50 (Cytochrome P450 2C9): 7.94 µM (inconclusive)
IC50 [1]: 6.96 µM (active)
IC50 [2]: 8.09 µM (active)

Next, values leading:

IC50 [1]: 11.1 µM (not active)
IC50 [2]: 17.8 µM (not active)
SMILES: CCSc1nc2ccc(OC)cc2cc1C#N

IC50 [16]: > 111 µM (not active)
IC50 [17]: 4.71 µM (active)
SMILES: COc1ccc2oc(C(=O)OCC(=O)Nc3ccc(NC(C)=O)cc3)c(C)c2c1
